Source: PMC6169531 (Journal of molecular biology, 2016)

Columns and labels:
Experiment in all cases: inhibition of methyl p-nitrophenyl phosphate hydrolysis, […] nm
Assay type in all cases: biochemical
[1] = target: AP (Escherichia coli alkaline phosphatase) (Escherichia coli, UniProt P00634, K350A)
[2] = target: AP (Escherichia coli alkaline phosphatase) (Escherichia coli, UniProt P00634, D123A)
[3] = target: AP (Escherichia coli alkaline phosphatase) (Escherichia coli, UniProt P00634, E344Y)
[4] = target: AP (Escherichia coli alkaline phosphatase) (Escherichia coli, UniProt P00634, D175A)
Sequence of AP (Escherichia coli alkaline phosphatase) (Escherichia coli, UniProt P00634, D175A) (P00634 23-471 D175A): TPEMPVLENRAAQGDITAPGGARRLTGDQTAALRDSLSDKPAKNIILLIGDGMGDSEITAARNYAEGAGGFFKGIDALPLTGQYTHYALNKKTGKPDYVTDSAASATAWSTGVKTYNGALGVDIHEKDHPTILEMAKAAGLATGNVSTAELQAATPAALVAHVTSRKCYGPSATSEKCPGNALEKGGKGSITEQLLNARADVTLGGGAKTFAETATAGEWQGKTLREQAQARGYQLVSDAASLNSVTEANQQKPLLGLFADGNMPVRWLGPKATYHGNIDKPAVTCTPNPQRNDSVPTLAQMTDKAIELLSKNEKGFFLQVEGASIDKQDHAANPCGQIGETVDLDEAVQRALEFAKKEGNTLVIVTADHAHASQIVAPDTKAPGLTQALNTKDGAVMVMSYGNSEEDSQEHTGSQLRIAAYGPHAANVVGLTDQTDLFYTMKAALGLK

Sequence of AP (Escherichia coli alkaline phosphatase) (Escherichia coli, UniProt P00634, K350A) (P00634 23-471 K350A): as the sequence (P00634 23-471 D175A) above, with A153D, K328A counted along it
Sequence of AP (Escherichia coli alkaline phosphatase) (Escherichia coli, UniProt P00634, D123A) (P00634 23-471, stated change not applied): as the sequence (P00634 23-471 D175A) above, with A153D counted along it
Sequence of AP (Escherichia coli alkaline phosphatase) (Escherichia coli, UniProt P00634, E344Y) (P00634 23-471 E344Y): as the sequence (P00634 23-471 D175A) above, with A153D, E322Y counted along it

SMILES	Ki [1]	Ki [2]	Ki [3]	Ki [4]
[O]=[V]([OH])([OH])[OH] [vanadate]	9.4 µM	13 µM	28 µM	17 µM
[O]=[W](=[O])([OH])[OH] [tungstate]	44 µM	99 µM	–	64 µM
